A short description of test [1]: Inhibition of CDK1/cyclinB. On the set-up: species or system Homo sapiens.
For test [2], the target named is Cyclin-dependent kinase 2 (Homo sapiens, UniProt P24941). Put plainly: Inhibition of CDK2.
For test [3], the target named is Cyclin-dependent kinase 4 (Homo sapiens, UniProt P11802). Kind of test: Inhibition of CDK4.
Test [4] deals with Serine/threonine-protein kinase AKT (Homo sapiens, UniProt P31751+Q9Y243+P31749). Put plainly: Inhibition of AKT. Type of test: protein assay.
Test [5] concerns the target Protein kinase C alpha type (Homo sapiens, UniProt P17252). Put plainly: Inhibition of PKCa.
In test [6] the target is Protein kinase C delta type (Homo sapiens, UniProt Q05655). Kind of test: Inhibition of PKCd.
Protein kinase C delta type, sequence (Q05655 whole entry): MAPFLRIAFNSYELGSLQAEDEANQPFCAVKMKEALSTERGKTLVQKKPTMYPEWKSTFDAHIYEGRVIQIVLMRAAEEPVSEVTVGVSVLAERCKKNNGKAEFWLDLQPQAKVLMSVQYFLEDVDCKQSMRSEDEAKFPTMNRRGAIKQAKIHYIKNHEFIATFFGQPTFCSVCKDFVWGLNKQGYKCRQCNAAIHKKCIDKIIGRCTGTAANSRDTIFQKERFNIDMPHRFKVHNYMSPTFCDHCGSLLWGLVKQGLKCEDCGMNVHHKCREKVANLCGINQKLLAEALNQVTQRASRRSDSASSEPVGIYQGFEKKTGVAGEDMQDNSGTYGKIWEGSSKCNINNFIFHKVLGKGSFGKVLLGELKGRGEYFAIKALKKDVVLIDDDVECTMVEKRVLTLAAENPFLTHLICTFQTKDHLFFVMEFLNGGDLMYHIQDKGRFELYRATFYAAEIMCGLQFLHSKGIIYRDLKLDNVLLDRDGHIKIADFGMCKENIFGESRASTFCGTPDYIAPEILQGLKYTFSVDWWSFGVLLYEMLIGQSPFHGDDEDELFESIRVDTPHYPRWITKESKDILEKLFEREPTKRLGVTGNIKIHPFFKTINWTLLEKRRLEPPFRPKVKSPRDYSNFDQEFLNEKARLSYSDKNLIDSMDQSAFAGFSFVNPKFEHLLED
The target of test [7] is Mitogen-activated protein kinase 1 (Homo sapiens, UniProt P28482). Put plainly: Inhibition of ERK.
Mitogen-activated protein kinase 1, sequence (P28482 whole entry): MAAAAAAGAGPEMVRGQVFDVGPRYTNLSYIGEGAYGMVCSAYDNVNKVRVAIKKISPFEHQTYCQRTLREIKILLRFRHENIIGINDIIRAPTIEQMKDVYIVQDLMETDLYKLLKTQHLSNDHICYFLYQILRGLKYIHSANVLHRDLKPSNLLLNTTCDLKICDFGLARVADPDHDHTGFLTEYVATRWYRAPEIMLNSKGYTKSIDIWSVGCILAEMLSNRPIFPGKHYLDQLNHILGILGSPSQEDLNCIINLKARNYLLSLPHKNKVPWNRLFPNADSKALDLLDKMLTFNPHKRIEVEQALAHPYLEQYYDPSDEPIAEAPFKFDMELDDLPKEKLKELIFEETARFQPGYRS
Test [8] has as its target Glycogen synthase kinase-3 (Homo sapiens, UniProt P49840+P49841). Put plainly: Inhibition of GSKp1. Type of test: protein assay.
In test [9] the target is Tyrosine-protein kinase Fyn (Homo sapiens, UniProt P06241). Put plainly: Inhibition of FYN.
Tyrosine-protein kinase Fyn, sequence (P06241 whole entry): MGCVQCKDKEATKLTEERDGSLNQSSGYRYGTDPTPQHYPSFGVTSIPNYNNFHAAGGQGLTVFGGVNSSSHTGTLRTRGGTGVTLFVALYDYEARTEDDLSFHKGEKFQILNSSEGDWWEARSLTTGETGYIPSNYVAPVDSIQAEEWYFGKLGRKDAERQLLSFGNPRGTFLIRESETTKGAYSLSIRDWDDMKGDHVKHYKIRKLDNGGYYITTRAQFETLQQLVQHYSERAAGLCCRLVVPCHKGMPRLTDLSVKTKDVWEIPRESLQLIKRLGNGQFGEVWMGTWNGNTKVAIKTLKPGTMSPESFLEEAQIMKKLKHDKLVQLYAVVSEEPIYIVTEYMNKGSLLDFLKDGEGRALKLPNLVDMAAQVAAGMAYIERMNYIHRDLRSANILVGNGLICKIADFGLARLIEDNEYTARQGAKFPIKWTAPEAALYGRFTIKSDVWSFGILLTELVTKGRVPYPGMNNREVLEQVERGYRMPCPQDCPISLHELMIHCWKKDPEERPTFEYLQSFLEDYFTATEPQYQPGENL
In the next test the target is T1, Ephrin type-B receptor 3 (Homo sapiens, UniProt P54753).
T1 sequence (P54753 whole entry): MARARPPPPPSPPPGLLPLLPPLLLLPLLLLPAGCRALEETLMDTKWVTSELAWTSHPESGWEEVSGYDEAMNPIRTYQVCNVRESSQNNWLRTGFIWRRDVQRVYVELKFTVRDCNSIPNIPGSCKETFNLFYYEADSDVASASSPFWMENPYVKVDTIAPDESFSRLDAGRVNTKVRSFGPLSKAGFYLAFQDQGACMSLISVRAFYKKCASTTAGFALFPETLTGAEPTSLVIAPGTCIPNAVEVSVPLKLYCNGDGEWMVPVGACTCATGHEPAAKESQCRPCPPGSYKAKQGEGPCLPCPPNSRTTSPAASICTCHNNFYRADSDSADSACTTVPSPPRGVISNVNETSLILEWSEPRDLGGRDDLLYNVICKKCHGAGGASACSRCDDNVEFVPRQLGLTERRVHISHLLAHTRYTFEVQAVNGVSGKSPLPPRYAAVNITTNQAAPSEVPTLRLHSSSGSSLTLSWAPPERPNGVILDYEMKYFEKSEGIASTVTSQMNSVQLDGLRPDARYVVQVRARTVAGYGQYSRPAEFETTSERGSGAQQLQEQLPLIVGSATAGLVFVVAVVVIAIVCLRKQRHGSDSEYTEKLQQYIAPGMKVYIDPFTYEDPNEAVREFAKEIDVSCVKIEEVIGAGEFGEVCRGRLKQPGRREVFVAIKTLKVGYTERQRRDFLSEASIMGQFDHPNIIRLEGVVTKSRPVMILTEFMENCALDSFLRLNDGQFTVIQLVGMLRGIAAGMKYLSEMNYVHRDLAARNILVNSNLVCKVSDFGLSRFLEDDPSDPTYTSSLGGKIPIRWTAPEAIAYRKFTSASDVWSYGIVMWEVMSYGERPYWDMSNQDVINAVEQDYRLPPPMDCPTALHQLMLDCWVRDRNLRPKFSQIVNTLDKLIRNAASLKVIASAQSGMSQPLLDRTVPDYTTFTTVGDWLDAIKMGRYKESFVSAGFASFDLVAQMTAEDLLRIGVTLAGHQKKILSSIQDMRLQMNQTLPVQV
Put plainly: Inhibition of EPHB3.

For the next test, the system named is SJSA-1. Put plainly: Antiproliferative activity against human SJSA1 cells. The format is functional, cell-based.
Test [10] concerns the target Ribosomal protein S6 kinase alpha-3 (Homo sapiens, UniProt P51812).

We go through 36 molecules from ChEMBL document CHEMBL1147195, “Synthesis and activity of quinolinyl-methylene-thiazolinones as potent and selective cyclin-dependent kinase 1 inhibitors” (Bioorg Med Chem Lett, 2007).

Cyclin-dependent kinase 4, sequence (P11802 whole entry): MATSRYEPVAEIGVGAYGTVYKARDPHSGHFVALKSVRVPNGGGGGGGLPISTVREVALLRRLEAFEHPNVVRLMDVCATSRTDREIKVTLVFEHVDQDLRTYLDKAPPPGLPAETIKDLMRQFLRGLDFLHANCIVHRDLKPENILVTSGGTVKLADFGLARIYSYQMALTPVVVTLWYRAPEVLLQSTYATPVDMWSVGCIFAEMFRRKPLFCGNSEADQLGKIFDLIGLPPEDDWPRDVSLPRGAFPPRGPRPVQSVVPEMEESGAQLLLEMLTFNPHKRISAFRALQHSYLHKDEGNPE
Ribosomal protein S6 kinase alpha-3, sequence (P51812 whole entry): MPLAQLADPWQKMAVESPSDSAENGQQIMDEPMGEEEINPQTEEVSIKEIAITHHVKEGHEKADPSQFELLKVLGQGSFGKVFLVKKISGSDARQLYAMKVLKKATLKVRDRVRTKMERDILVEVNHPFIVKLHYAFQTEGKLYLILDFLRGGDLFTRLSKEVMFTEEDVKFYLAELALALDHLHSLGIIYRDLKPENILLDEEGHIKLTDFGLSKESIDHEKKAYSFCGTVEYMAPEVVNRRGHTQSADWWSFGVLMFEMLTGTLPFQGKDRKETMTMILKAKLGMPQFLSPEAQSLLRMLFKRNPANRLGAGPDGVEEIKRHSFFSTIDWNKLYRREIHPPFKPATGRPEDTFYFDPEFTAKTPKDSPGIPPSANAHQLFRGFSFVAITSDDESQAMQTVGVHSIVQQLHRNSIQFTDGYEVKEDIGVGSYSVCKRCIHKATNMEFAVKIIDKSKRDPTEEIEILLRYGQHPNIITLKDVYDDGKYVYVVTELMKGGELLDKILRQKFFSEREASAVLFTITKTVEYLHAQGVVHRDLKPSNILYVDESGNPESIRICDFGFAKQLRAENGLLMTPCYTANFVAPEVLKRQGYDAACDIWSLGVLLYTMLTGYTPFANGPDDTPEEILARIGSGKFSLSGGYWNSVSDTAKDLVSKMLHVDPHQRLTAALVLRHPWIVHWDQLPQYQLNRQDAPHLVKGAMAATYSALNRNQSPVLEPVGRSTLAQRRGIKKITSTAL

Take `O=C1N=C(NCCc2ccc(Br)cc2)S/C1=C\c1ccc2ncccc2c1`: in [1], affinity was put at a Ki of 640 nM. With `COc1ccccc1CCNC1=NC(=O)/C(=C/c2ccc3ncccc3c2)S1`, the Ki in [1] was found to be 63 nM. In test [1], `CNC1=NC(=O)/C(=C/c2ccc3ncccc3c2)S1` had an inhibitory constant (Ki) of 270 nM. The molecule `CCCCNC1=NC(=O)/C(=C/c2ccc3ncccc3c2)S1` came in with a Ki in test [1] of 310 nM.

In turn, `O=C1N=C(NCc2ccccc2)S/C1=C\c1ccc2ncccc2c1` showed a Ki in test [1] of 150 nM.

In the case of `O=C1N=C(NCc2ccccn2)S/C1=C\c1ccc2ncccc2c1`, the Ki in test [1] was 310 nM. The same measure, in the same setting: then `CCOc1ccccc1CCNC1=NC(=O)/C(=C/c2ccc3ncccc3c2)S1`, with 87 nM. For the molecule `O=C1N=C(NCCc2cccc(Cl)c2)S/C1=C\c1ccc2ncccc2c1`, in test [1], affinity was put at a Ki of 130 nM.

In turn, `CONC1=NC(=O)/C(=C/c2ccc3ncccc3c2)S1` displayed a Ki in [1] of over 2000 nM. In the case of `O=C1N=C(NCCc2cccc(F)c2)S/C1=C\c1ccc2ncccc2c1`, in test [1], the Ki was 60 nM. For `O=C1N=C(NCCc2cccs2)S/C1=C\c1ccc2ncccc2c1`, affinity in [1] was put at a Ki of 45 nM.

Consider `O=C1N=C(NCCc2ccc(F)cc2)S/C1=C\c1ccc2ncccc2c1`, for which the affinity in [1] corresponds to a Ki of 62 nM. `COc1ccccc1CNC1=NC(=O)/C(=C/c2ccc3ncccc3c2)S1` yielded a Ki in test [1] of 86 nM. Still for that read-out and setting: as for `O=C1N=C(NCc2c(Cl)cccc2Cl)S/C1=C\c1ccc2ncccc2c1`, the figure is 1040 nM; as for `O=C1N=C(N[C@H](CO)Cc2ccccc2)S/C1=C\c1ccc2ncccc2c1`, 2000 nM. In turn, `O=C1N=C(N[C@H](CO)c2ccccc2)S/C1=C\c1ccc2ncccc2c1` showed an inhibitory constant (Ki) in test [1] of 580 nM.

For `COC[C@H](NC1=NC(=O)/C(=C/c2ccc3ncccc3c2)S1)c1ccccc1`, the Ki in [1] is over 2000 nM. As to `O=C1N=C(N[C@@H]2C[C@H]2c2ccccc2)S/C1=C\c1ccc2ncccc2c1`, the inhibition constant (Ki) was 23 nM in [1]; over 2000 nM in [2]; over 2000 nM in test [3]; over 2 µM in test [4]; over 2000 nM in test [5]; 480 nM in test [6]. The Ki in [7] was 220 nM; in test [8] it was over 2 µM; in test [9], over 2000 nM; at Ephrin type-B receptor 3, over 2000 nM; in test [10], over 2000 nM. Also, in the test with SJSA-1, half-maximal inhibition (IC50) required 1.85 µM. `CN(Cc1cccs1)C1=NC(=O)/C(=C/c2ccc3ncccc3c2)S1` had a Ki in test [1] of over 2000 nM. With `O=C1N=C(NCCc2ccccc2Cl)S/C1=C\c1ccc2ncccc2c1`, the Ki in test [1] is 46 nM. The same measure, in the same setting: then `COc1ccc(CCNC2=NC(=O)/C(=C/c3ccc4ncccc4c3)S2)cc1`, with 390 nM. As for `Cc1ccsc1CNC1=NC(=O)/C(=C/c2ccc3ncccc3c2)S1`, in test [1], the affinity corresponds to a Ki of 89 nM. The molecule `O=C1N=C(NCc2ccccc2Br)S/C1=C\c1ccc2ncccc2c1` showed a Ki in test [1] of 38 nM. In test [1], `O=C1N=C(Nc2ccccc2)S/C1=C\c1ccc2ncccc2c1` came in with a Ki of over 2000 nM. As for `O=C1N=C(NCCCc2ccccc2)S/C1=C\c1ccc2ncccc2c1`, affinity in test [1] was put at a Ki of 240 nM. In test [1], `O=C1N=C(N[C@@H](CO)Cc2ccccc2)S/C1=C\c1ccc2ncccc2c1` displayed an inhibition constant Ki of 230 nM. The molecule also returned an IC50 in the test on SJSA-1 of 3.24 µM.

In the case of `O=C1N=C(N[C@@H](CO)c2ccccc2)S/C1=C\c1ccc2ncccc2c1`, in test [1], the Ki was 350 nM. On the same count and under the same terms, then `O=C1N=C(NCC(CO)c2ccccc2)S/C1=C\c1ccc2ncccc2c1` (stereo not given), with 390 nM.

For the molecule `O=C1N=C(NCc2cccs2)S/C1=C\c1ccc2ncccc2c1`, the Ki in test [4] is over 2 µM; in test [5] it was over 2000 nM; in test [6], 320 nM; in [7] it was 2000 nM; in test [8], 0.5 µM; in test [9], over 2000 nM. The Ki at Ephrin type-B receptor 3 was over 2000 nM. Moreover, it took 4.55 µM to reach half-maximal inhibition in the test with SJSA-1 (IC50).

Turning to `O=C1N=C(NCCc2ccc(Cl)cc2)S/C1=C\c1ccc2ncccc2c1`, the Ki in [1] was found to be 410 nM. The same measure, in the same setting: then `O=C1N=C(NC2CC2)S/C1=C\c1ccc2ncccc2c1`, with 270 nM. For the molecule `NC1=NC(=O)/C(=C/c2ccc3ncccc3c2)S1`, the Ki in test [1] was 80 nM; in test [2], 2000 nM; in test [3], over 2000 nM; in [4] it was over 2 µM; in test [5], over 2000 nM; in [6] it was 1700 nM. For the same molecule, the Ki in test [7] is over 2000 nM; in test [8] it was over 2 µM; in test [9] it was over 2000 nM; at Ephrin type-B receptor 3, over 2000 nM; in [10] it was over 2000 nM. Regarding `O=C1N=C(NCCc2ccccn2)S/C1=C\c1ccc2ncccc2c1`, the affinity in test [1], expressed as Ki, was 280 nM. For `O=C1N=C(NCCc2ccccc2)S/C1=C\c1ccc2ncccc2c1`, in [1], the affinity corresponds to a Ki of 60 nM. The molecule `O=C1N=C(NCCc2ccccc2F)S/C1=C\c1ccc2ncccc2c1` gave a Ki in test [1] of 120 nM.

Take `O=C1N=C(NCc2ccccc2Cl)S/C1=C\c1ccc2ncccc2c1`: the affinity in test [1], expressed as Ki, was 52 nM.

As a reminder, the Ki is the equilibrium dissociation constant of an inhibitor or competing ligand from its target. Lower therefore signals tighter binding. Usually IC50 stands for the concentration that gives 50% inhibition. Low readings indicate greater potency, high ones weaker potency.
